Experimental data as given in patent US8822413B2, “Bifunctional hormone having alpha-MSH activity and natriuretic peptide activity and uses thereof” (Theratechnologies Inc., priority 2007, dated 2014).
Bridge positions count the residues as written; N and C are the ends. Square brackets hold non-standard residues; d marks the D form. Peptide text beside a SMILES is read from it.

Legend:
ANP receptor = target: T1, ANP receptor (Sus scrofa, UniProt F1SFW3); assay: cGMP production in ANP receptor-expressing LLC-PK1 cells; assay type: cell-based; conditions: 30 min stimulation, 10^-6M through 10^-12M, NR = No response detected
T1 construct: ANP receptor-expressing LLC-PK1 cells; endogenous in cells; host or cells: LLC-PK1 cells
T1 sequence (F1SFW3 29-1057): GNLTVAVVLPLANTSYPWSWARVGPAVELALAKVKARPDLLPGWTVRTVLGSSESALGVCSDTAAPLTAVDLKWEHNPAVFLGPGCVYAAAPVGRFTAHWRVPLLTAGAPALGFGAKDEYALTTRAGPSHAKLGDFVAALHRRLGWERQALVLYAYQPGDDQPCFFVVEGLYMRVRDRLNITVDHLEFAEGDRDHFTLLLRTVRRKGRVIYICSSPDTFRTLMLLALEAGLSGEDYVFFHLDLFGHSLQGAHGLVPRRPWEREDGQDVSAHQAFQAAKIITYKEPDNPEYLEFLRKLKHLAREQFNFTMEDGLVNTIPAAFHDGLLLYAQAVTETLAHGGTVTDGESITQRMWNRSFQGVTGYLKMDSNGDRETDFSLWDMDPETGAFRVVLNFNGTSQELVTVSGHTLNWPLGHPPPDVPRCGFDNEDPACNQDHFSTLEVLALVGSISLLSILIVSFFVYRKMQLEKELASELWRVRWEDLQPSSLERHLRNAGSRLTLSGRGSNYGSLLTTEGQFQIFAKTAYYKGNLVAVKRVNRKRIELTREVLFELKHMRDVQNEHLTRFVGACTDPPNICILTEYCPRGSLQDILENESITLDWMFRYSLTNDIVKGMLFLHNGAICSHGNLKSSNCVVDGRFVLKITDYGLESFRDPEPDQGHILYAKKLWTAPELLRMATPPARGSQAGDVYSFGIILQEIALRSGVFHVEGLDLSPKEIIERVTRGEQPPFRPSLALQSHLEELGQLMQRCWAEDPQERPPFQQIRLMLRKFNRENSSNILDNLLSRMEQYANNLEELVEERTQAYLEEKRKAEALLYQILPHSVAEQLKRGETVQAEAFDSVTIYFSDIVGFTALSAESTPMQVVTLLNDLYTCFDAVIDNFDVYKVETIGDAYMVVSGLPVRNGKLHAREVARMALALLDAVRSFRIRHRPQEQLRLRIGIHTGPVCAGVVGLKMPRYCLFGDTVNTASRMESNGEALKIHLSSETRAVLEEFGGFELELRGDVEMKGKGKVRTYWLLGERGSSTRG
Procedure: The bifunctional hormone was tested on ANP receptor-expressing LLC-PK1 cells and on MCR1 receptor-expressing B16-F1 cells. Both cell types were cultured 24 hours before the stimulation, in 96-well plates, at a concentration of 1.0×10^5 cells/ml. Before stimulation, cells were starved 2 hours in DPBS only and incubated 10 min in assay buffer (DPBS containing 20 mM HEPES, 0.1% BSA and 500 μM IBMX). The dose response curve of the bifunctional hormone was done for 30 minutes with concentrations of 10^−6M through 10^−12M. Supernatant was collected and cAMP (B16-F1) or cGMP (LLC-PK1) was measured with a radiolabeled kit from GE Healthcare Company.

normal men = conditions: infusion in normal men; cited from earlier work

CC[C@H](C)[C@@H]1NC(=O)[C@H](CCCNC(=N)N)NC(=O)[C@H](CC(=O)O)NC(=O)[C@H](CCSC)NC(=O)[C@H](CCCNC(=N)N)NC(=O)CNC(=O)CNC(=O)[C@H](Cc2ccccc2)NC(=O)[C@@H](NC(=O)[C@H](CO)NC(=O)[C@H](CO)NC(=O)[C@H](CCCNC(=N)N)NC(=O)[C@H](CCCNC(=N)N)NC(=O)CNC(=O)[C@H](Cc2c[nH]c3ccccc23)NC(=O)[C@H](CCCNC(=N)N)NC(=O)[C@H](Cc2ccccc2)NC(=O)[C@H](Cc2c[nH]cn2)NC(=O)[C@H](CCC(=O)O)NC(C)=O)CSSC[C@@H](C(=O)N[C@@H](CC(N)=O)C(=O)N[C@@H](CO)C(=O)N[C@@H](Cc2ccccc2)C(=O)N[C@@H](CCCNC(=N)N)C(=O)N[C@@H](Cc2ccc(O)cc2)C(N)=O)NC(=O)CNC(=O)[C@H](CC(C)C)NC(=O)CNC(=O)[C@H](CO)NC(=O)[C@H](CCC(N)=O)NC(=O)[C@H](C)NC(=O)CNC1=O [SEQ ID NO: 41, Ac-E-H-F-R-W-G-R-R-S-S-[C-F-G-G-R-M-D-R-I-G-A-Q-S-G-L-G-C]-N-S-F-R-Y-NH2] (Ac-EHFRWGRRSSCFGGRMDRIGAQSGLGCNSFRY-NH2; disulfide 11-27)
EC50 (ANP receptor): 8.9 nM

CC[C@H](C)[C@@H]1NC(=O)[C@H](CCCNC(=N)N)NC(=O)[C@H](CC(=O)O)NC(=O)[C@H](CCSC)NC(=O)[C@H](CCCNC(=N)N)NC(=O)CNC(=O)CNC(=O)[C@H](Cc2ccccc2)NC(=O)[C@@H](NC(=O)[C@H](CO)NC(=O)[C@H](CO)NC(=O)[C@H](CCCNC(=N)N)NC(=O)[C@H](CCCNC(=N)N)NC(=O)CNC(=O)[C@H](Cc2c[nH]c3ccccc23)NC(=O)[C@H](CCCNC(=N)N)NC(=O)[C@@H](Cc2ccccc2)NC(=O)[C@H](Cc2c[nH]cn2)NC(=O)[C@H](CCC(=O)O)NC(C)=O)CSSC[C@@H](C(=O)N[C@@H](CC(N)=O)C(=O)N[C@@H](CO)C(=O)N[C@@H](Cc2ccccc2)C(=O)N[C@@H](CCCNC(=N)N)C(=O)N[C@@H](Cc2ccc(O)cc2)C(N)=O)NC(=O)CNC(=O)[C@H](CC(C)C)NC(=O)CNC(=O)[C@H](CO)NC(=O)[C@H](CCC(N)=O)NC(=O)[C@H](C)NC(=O)CNC1=O [SEQ ID NO: 42, Ac-E-H-f-R-W-G-R-R-S-S-[C-F-G-G-R-M-D-R-I-G-A-Q-S-G-L-G-C]-N-S-F-R-Y-NH2] (Ac-EH[dF]RWGRRSSCFGGRMDRIGAQSGLGCNSFRY-NH2; disulfide 11-27)
EC50 (ANP receptor): 502 nM

CC[C@H](C)[C@@H]1NC(=O)[C@H](CCCNC(=N)N)NC(=O)[C@H](CC(=O)O)NC(=O)[C@H](CCSC)NC(=O)[C@H](CCCNC(=N)N)NC(=O)CNC(=O)CNC(=O)[C@H](Cc2ccccc2)NC(=O)[C@@H](NC(=O)[C@H](CCSC)NC(=O)[C@@H]2CCCN2C(=O)[C@H](CCCCN)NC(=O)CNC(=O)[C@H](Cc2c[nH]c3ccccc23)NC(=O)[C@H](CCCNC(=N)N)NC(=O)[C@H](Cc2c[nH]cn2)NC(C)=O)CSSC[C@@H](C(=O)N[C@@H](CC(N)=O)C(=O)N[C@@H](CO)C(=O)N[C@@H](Cc2ccccc2)C(=O)N[C@@H](CCCNC(=N)N)C(=O)N[C@@H](Cc2ccc(O)cc2)C(N)=O)NC(=O)CNC(=O)[C@H](CC(C)C)NC(=O)CNC(=O)[C@H](CO)NC(=O)[C@H](CCC(N)=O)NC(=O)[C@H](C)NC(=O)CNC1=O [SEQ ID NO: 43, Ac-H-R-W-G-K-P-M-[C-F-G-G-R-M-D-R-I-G-A-Q-S-G-L-G-C]-N-S-F-R-Y-NH2] (Ac-HRWGKPMCFGGRMDRIGAQSGLGCNSFRY-NH2; disulfide 8-24)
EC50 (ANP receptor): 86.8 nM

S-P-K-M-V-Q-G-S-G-[C-P-G-R-K-M-D-R-I-S-S-S-S-G-L-G-C]-K-V-L-R-R-H [BNP]
increase in sodium excretion (normal men): 2 fold
reduction in plasma renin, angiotensin II and aldosterone secretion (normal men): 50%
